Test results as given in patent US9284283B2, “Macrocyclic compounds for modulating IL-17” (ENSEMBLE THERAPEUTICS CORPORATION, priority 2012, dated 2016).
pIC50, pKd: −log10 of the molar value.

Key:
IL17A = biological target: T1, IL17A (Homo sapiens, UniProt Q16552); experiment: Surface Plasmon Resonance (SPR) analysis of compound interactions with IL17A; settings: SPR binding to IL17A
T1 sequence (Q16552 24-155): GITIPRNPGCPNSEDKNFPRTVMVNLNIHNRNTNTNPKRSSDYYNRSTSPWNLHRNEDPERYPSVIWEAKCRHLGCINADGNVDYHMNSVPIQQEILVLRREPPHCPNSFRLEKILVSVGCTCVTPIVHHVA
In short: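 His-tagged IL17A captured on a Ni-NTA chip; five 2- or 3-fold compound dilutions from 50 μM injected for 180 s, 120 s dissociation, in HEPES-saline buffer with 0.5% DMSO. Baseline-subtracted sensorgrams fitted 1:1 for ka, kd and KD; Kd also derived from binding extent per concentration.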

[1] = tested on: IL-17-induced GROα secretion from HT-29 cells; experiment: HT-29 cellular assay (IL-17-induced GROα secretion); type: cell-based; settings: Homo sapiens
Description: To test the ability of a compound of the invention to neutralize or antagonize IL-17 bioactivity, the following cell-based assay was used. IL-17 can stimulate epithelial cells and other cells to secrete GROα. The ability of a compound of the invention to neutralize IL-17-induced GROα secretion from the human colorectal adenocarcinoma epithelial cell line HT-29 is tested in this assay.
HT-29 cells (human colorectal adenocarcinoma epithelial cells, ATCC #HTB-38), were maintained in culture/assay medium in tissue culture-treated flasks using standard techniques. HT-29 cells were grown in tissue culture flasks until they were 50-80% confluent on the day before the assay. The day before the assay, the cells were detached from the culture flasks with trypsin+EDTA. The trypsin was inactivated with complete assay medium. HT-29 cells were then centrifuged at 500×g for 5 minutes at room temperature. The cell pellet was then re-suspended in Defined Keratinocyte SFM (Invitrogen #10766019)+10% FCS and 50,000 HT-29 cells (in 100 μl) were added to each treatment well of the 96-well plates. The 96-well plates were placed in a tissue culture incubator (37° C., 5% CO2) overnight. The next day, the media was removed from the cells and the cells were washed twice with Defined Keratinocyte SFM. In a separate 96-well plate, compounds to be tested were serially diluted in Defined Keratinocyte SFM and run in triplicate in 100 μL total volume. To these compound samples were then added 100 μL of human IL-17 at a concentration of 20 ng/mL in Defined Keratinocyte SFM for serum-free assays. 150 μL of the compound/IL-17 mixture was then added to the cells from which the media has previously been removed. The cells were grown for 48 hours in Defined Keratinocyte SFM in a tissue culture incubator (37° C., 5% CO2).
At the end of the incubation, the plates are centrifuged (500×g for 5 minutes at room temperature), and the cell culture media is transferred to polypropylene 96-well plates. The supernatant was used neat in the ELISA. GROα levels are measured with a GROα sandwich ELISA (R+D Systems DuoSet #DY275E), as per the manufacturer's instructions. The ELISA plates were previously coated with mAb 275 (R+D Systems) at 4 μg/mL. GROα is detected using biotinylated goat anti-human GROα (R+D Systems BAF275) at 200 ng/mL using TMB as a substrate. At the end of the ELISA reactions, plates are read at 450 nm on a microplate reader and compared to a standard calibration curve.

[2] = biological target: T2, recombinant human IL17a (binding to its receptor IL17R) (Homo sapiens, UniProt Q16552); experiment: IL-17 competition ELISA I (IL17a coated, IL17R/Fc binding)
T2 construct: purchased R&D Systems 317-ILB (IL17a); 177-IR (IL17R/Fc)
T2 sequence (Q16552 20-155 limits assumed): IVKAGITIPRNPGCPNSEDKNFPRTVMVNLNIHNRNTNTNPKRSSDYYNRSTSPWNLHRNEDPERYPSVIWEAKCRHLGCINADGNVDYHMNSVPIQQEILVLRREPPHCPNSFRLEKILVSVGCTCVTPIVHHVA
In short: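 Plates coated with 20 nM recombinant human IL17a received compound dilutions and 12 nM IL17R/Fc (final) for 30 min at room temperature. Bound receptor was detected with HRP anti-human Fc and TMB, read at 450 nm. IC50 came from a 4-parameter logistic fit between no-competitor and blank controls.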

[3] = tested on: IL-17A induced secretion of IL-6 in primary human RASF cells; experiment: Inhibition of IL17A induced secretion of IL6 in human rheumatoid arthritis synovial fibroblast (RASF) cells; type: cell-based; settings: Homo sapiens, Fibroblast
In short: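 Primary RASF cells (passage 2-8) stimulated 20 h at 37 °C with rhIL-17A (30 ng/mL) pre-incubated 1 h with compound (final 0.03-25 μM, 0.25% DMSO). Supernatant IL-6 measured by ELISA, normalized to WST1 viability; triplicates.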

[4] = biological target: T3, biotinylated human IL-17 (binding to IL17R/Fc) (Homo sapiens, UniProt Q16552); experiment: IL-17 competition ELISA II (captured IL17R/Fc, biotinylated IL-17)
T3 construct: purchased R&D Systems 317-ILB (IL-17, biotinylated); 177-IR (IL17R/Fc)
T3 sequence (Q16552 20-155 limits assumed): T2 sequence (Q16552 20-155 limits assumed)
In short: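 Anti-human IgG-coated plates captured IL17R/Fc (10 nM), then compound (5-fold dilutions from 1 μM) and biotinylated human IL-17 (20 nM stock) were added for 30 min at room temperature in PBST. Bound IL-17 detected by streptavidin-HRP/TMB at 450 nm. IC50 from 4-parameter logistic fit between no-competitor and blank controls.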

DNFB-treated BALB/c mice = experiment: Murine model of delayed hypersensitivity (DNFB-induced ear edema); type: in vivo, mouse; settings: po; for Reduction in edema (%): ear weight 24 h after DNFB challenge; for IFNγ Reduction (%) / IL6 Reduction (%) / CXCL1 Reduction (%): plasma
Description: We used a murine model of fluorodinitrobenzene (DNFB)-induced ear edema to test the anti-inflammatory activity of both orally dosed and intraperitoneally dosed exemplary compounds of the invention. BALB/c mice (Harlan Sprague-Dawley, Inc., male, 6-8 weeks old) were topically treated on their shaved abdomen with 30 μL of 0.5% 1-fluoro-2,4-dinitrobenzene (DNFB) (4:1 acetone:olive oil) once on Day 0 and once on Day 1.
For oral dosing (“PO”), exemplary compounds of the invention were either suspended at 3 mg/mL in 20% Cremophor EL (Sigma) (20:80; Cremophor:water) or dissolved at 1 mg/mL or 3 mg/mL in D-α-tocopherol polyethylene glycol 1000 succinate (TPGS; Sigma)/PEG-400/water (20:60:20). For intraperitoneal dosing (“IP”), exemplary compounds of the invention were dissolved in DMSO at a concentration of 5 mg/mL. On day 7, the test compound was administered (PO at either 10 mg/kg or 30 mg/kg; IP at 1, 3, or 10 mg/kg) to DNFB-treated mice. Commercially available anti-mouse IL-17A (BioLegend) administered intraperitoneally at 5 mg/kg in PBS was used as a positive control. Thirty minutes later, 20 μL of 0.2% DNFB was applied to the right ear of animals and vehicle ([…]:olive oil) was applied to the left ear. One and four hours after DNFB challenge, a subset of mice was exsanguinated and plasma prepared from the blood. Twenty-four hours after challenge, the remaining mice were euthanized, and their ears were removed and weighed to determine the amount of edema. Plasma was assayed for interleukin-6, TNF-α, CXCL1, and interferon-γ concentrations using commercially-available assays.

Compound | pKd (IL17A) | pIC50 [1] | pIC50 [2] | pIC50 [3] | also measured
COC(=O)[C@H]1CCCCNC(=O)CNC(=O)[C@@H](Cc2ccc(NC(=O)[C@H](Cc3ccccc3Cl)NC(=O)Cc3ccccc3)cc2)NC(=O)CC2(CCCC2)CC(=O)N1 [Compound 141] | > 7.00 | 5.00 to 6.00 | – | – | –
COC(=O)[C@@H]1CCCCNC(=O)CCCNC(=O)[C@@H](Cc2ccc(NC(=O)[C@H](Cc3ccccc3Cl)NC(=O)c3ccccc3)cc2)NC(=O)CC2(CCCC2)CC(=O)N1 [Compound 113] | 6.00 to 7.00 | < 5.00 | – | – | –
COC(=O)[C@H]1CCCCNC(=O)CNC(=O)[C@@H](Cc2ccc(NC(=O)[C@H](Cc3ccccc3Cl)NC(=O)c3ccccc3)cc2)NC(=O)CC2(CCCC2)CC(=O)N1 [Compound 142] | > 7.00 | 5.00 to 6.00 | – | – | –
O=C1CNC(=O)[C@@H](Cc2ccc(NC(=O)[C@H](Cc3ccccc3Br)NC(=O)Cc3ccc(O)cc3)cc2)NC(=O)CC2(CCCC2)CC(=O)NCCCCCN1 [Compound 211] | > 7.00 | – | > 7.00 | 5.00 to 6.00 | –
O=C1CNC(=O)[C@@H](Cc2ccc(NC(=O)[C@H](Cc3ccccc3Cl)NC(=O)c3cncnc3)cc2)NC(=O)CC2(CCCC2)CC(=O)NCCCCCN1 [Compound 201] | > 7.00 | – | 6.00 to 7.00 | < 5.00 | –
COC(=O)N[C@@H](Cc1ccccc1Cl)C(=O)Nc1ccc(C[C@H]2NC(=O)CC3(CCCC3)CC(=O)NCCOCCOCCNC2=O)cc1 [Compound 465] | – | – | – | – | pIC50 [4]: > 7.00; Reduction in edema (%) (DNFB-treated BALB/c mice; 30 mg/kg): 23.5%; IFNγ Reduction (%) (DNFB-treated BALB/c mice; 30 mg/kg): 47.4%; IL6 Reduction (%) (DNFB-treated BALB/c mice; 30 mg/kg): 42.5%
O=C1CNC(=O)[C@@H](Cc2ccc(NC(=O)[C@H](Cc3ccccc3F)NC(=O)Cc3ccccc3)cc2)NC(=O)CC2(CCCC2)CC(=O)N[C@H](C(=O)O)CCCCN1 [Compound 177] | > 7.00 | 5.00 to 6.00 | – | – | –
CC(C)(C)C(=O)N[C@@H](Cc1ccccc1Cl)C(=O)Nc1ccc(C[C@H]2NC(=O)CC3(CCCC3)CC(=O)NCCCCCNC(=O)CNC2=O)cc1 [Compound 206] | > 7.00 | – | > 7.00 | 5.00 to 6.00 | –
O=C1CC2(CCCC2)CC(=O)N[C@H](Cc2ccc(NC(=O)[C@H](Cc3ccccc3Cl)NC(=O)C(F)(F)c3ccccc3)cc2)C(=O)NCCOCCOCCN1 [Compound 475] | – | – | – | 6.00 to 7.00 | pIC50 [4]: > 7.00; Reduction in edema (%) (DNFB-treated BALB/c mice; 10 mg/kg): 19.2%; CXCL1 Reduction (%) (DNFB-treated BALB/c mice; 10 mg/kg): 61.4%; IFNγ Reduction (%) (DNFB-treated BALB/c mice; 10 mg/kg): 11.3%; IL6 Reduction (%) (DNFB-treated BALB/c mice; 10 mg/kg): 29.7%; Reduction in edema (%) (DNFB-treated BALB/c mice; 30 mg/kg): 49.5%; CXCL1 Reduction (%) (DNFB-treated BALB/c mice; 30 mg/kg): 63.0%; IFNγ Reduction (%) (DNFB-treated BALB/c mice; 30 mg/kg): 45.0%; IL6 Reduction (%) (DNFB-treated BALB/c mice; 30 mg/kg): 51.9%
CC[C@H](C)[C@H](NC(=O)Cc1ccccc1)C(=O)Nc1ccc(C[C@H]2NC(=O)CC3(CCCC3)CC(=O)N[C@H](C(=O)OC)CCCCNC(=O)CCCNC2=O)cc1 [Compound 122] | 5.00 to 6.00 | – | 5.00 to 6.00 | 5.00 to 6.00 | –
COC(=O)[C@@H]1CCCCNC(=O)CCNC(=O)[C@@H](Cc2ccc(NC(=O)[C@H](Cc3ccccc3F)NC(=O)Cc3ccccc3)cc2)NC(=O)CC2(CCCC2)CC(=O)N1 [Compound 109] | 6.00 to 7.00 | 5.00 to 6.00 | – | – | –
